Experimental data taken from publication PMC4917279 (Journal of Medicinal Chemistry, 2016).

Tests used:
Assay in all cases: KINOMEscan
Type in all cases: binding
Settings in all cases: read-out: %Ctrl @ 1000 nM
BIKE = target: T1, BIKE (Homo sapiens, UniProt Q9NSY1)
T1 construct: purchased DiscoveRx KINOMEscan

CAMK1G = target: T2, CAMK1G (Homo sapiens, UniProt Q96NX5)
T2 construct: purchased DiscoveRx KINOMEscan

CAMK4 = target: T3, CAMK4 (Homo sapiens, UniProt Q16566)
T3 construct: purchased DiscoveRx KINOMEscan

CDK11 = target: T4, CDK11 (Homo sapiens, UniProt Q9BWU1)
T4 construct: purchased DiscoveRx KINOMEscan
T4 sequence (Q9BWU1 whole entry): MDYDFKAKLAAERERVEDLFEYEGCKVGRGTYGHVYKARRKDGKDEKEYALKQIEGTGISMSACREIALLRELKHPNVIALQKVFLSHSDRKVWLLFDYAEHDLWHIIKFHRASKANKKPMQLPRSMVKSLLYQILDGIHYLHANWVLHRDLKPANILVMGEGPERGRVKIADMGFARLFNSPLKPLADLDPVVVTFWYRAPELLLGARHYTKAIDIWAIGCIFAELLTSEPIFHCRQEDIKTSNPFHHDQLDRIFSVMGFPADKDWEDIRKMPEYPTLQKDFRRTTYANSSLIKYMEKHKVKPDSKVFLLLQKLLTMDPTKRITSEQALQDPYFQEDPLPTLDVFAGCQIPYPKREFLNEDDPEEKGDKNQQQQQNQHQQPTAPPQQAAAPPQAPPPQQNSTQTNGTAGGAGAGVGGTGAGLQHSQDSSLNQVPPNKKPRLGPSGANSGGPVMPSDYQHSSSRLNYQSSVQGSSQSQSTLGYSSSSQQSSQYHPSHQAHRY

CDK5 = target: T5, CDK5 (Homo sapiens, UniProt Q00535)
T5 construct: purchased DiscoveRx KINOMEscan

CSF1R = target: T6, CSF1R (Homo sapiens, UniProt P07333)
T6 construct: purchased DiscoveRx KINOMEscan

CSNK1A1 = target: T7, CSNK1A1 (Homo sapiens, UniProt P48729)
T7 construct: purchased DiscoveRx KINOMEscan

DAPK3 = target: T8, DAPK3 (Homo sapiens, UniProt O43293)
T8 construct: purchased DiscoveRx KINOMEscan

DMPK2 = target: T9, DMPK2 (Homo sapiens, UniProt Q6DT37)
T9 construct: purchased DiscoveRx KINOMEscan
T9 sequence (Q6DT37 whole entry): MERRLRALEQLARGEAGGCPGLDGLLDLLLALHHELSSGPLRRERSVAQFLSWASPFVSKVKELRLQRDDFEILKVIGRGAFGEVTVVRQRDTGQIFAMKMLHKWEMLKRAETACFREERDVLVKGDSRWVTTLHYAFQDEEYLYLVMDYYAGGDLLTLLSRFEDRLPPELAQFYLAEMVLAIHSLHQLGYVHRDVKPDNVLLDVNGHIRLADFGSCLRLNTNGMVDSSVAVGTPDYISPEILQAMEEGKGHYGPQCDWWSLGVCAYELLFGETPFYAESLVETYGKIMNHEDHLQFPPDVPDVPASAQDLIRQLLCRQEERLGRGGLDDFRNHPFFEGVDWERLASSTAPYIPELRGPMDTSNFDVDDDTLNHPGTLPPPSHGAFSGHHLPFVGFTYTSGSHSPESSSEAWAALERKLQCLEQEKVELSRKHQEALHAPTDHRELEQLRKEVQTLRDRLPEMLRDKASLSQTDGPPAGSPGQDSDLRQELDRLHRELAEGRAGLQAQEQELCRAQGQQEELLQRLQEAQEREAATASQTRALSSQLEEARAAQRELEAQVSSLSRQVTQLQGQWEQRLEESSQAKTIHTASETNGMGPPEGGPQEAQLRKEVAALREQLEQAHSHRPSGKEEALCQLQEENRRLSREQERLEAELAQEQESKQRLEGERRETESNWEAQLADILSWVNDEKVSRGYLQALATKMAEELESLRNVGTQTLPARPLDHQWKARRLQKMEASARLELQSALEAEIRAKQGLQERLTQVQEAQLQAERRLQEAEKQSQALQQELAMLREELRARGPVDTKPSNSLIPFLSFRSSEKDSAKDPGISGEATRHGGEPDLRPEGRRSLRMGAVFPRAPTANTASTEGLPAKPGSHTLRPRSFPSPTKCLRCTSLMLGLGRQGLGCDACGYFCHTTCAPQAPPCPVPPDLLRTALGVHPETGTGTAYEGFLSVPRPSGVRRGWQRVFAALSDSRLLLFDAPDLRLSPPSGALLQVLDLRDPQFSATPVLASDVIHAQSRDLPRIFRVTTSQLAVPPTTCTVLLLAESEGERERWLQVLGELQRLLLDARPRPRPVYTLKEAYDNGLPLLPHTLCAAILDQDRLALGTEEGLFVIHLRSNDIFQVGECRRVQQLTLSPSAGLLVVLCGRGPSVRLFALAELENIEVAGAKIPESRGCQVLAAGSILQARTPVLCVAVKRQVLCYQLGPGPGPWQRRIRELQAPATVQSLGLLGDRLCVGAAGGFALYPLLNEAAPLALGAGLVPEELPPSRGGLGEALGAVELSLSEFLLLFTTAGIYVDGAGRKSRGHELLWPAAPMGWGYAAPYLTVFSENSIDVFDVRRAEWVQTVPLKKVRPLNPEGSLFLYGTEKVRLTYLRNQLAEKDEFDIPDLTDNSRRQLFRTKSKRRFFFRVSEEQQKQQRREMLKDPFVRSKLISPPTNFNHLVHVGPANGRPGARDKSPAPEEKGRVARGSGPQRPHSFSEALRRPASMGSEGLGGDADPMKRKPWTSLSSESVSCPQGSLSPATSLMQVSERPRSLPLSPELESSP

[1] = target: T10, EGFR(L747-S752del, P753S) (Homo sapiens, UniProt P00533, DEL747-752/P753S)
T10 construct: purchased DiscoveRx KINOMEscan

EGFR(L858R,T790M) = target: T11, EGFR(L858R,T790M) (Homo sapiens, UniProt P00533, L858R/T790M)
T11 construct: purchased DiscoveRx KINOMEscan
T11 sequence (P00533 25-1210 T790M/L858R): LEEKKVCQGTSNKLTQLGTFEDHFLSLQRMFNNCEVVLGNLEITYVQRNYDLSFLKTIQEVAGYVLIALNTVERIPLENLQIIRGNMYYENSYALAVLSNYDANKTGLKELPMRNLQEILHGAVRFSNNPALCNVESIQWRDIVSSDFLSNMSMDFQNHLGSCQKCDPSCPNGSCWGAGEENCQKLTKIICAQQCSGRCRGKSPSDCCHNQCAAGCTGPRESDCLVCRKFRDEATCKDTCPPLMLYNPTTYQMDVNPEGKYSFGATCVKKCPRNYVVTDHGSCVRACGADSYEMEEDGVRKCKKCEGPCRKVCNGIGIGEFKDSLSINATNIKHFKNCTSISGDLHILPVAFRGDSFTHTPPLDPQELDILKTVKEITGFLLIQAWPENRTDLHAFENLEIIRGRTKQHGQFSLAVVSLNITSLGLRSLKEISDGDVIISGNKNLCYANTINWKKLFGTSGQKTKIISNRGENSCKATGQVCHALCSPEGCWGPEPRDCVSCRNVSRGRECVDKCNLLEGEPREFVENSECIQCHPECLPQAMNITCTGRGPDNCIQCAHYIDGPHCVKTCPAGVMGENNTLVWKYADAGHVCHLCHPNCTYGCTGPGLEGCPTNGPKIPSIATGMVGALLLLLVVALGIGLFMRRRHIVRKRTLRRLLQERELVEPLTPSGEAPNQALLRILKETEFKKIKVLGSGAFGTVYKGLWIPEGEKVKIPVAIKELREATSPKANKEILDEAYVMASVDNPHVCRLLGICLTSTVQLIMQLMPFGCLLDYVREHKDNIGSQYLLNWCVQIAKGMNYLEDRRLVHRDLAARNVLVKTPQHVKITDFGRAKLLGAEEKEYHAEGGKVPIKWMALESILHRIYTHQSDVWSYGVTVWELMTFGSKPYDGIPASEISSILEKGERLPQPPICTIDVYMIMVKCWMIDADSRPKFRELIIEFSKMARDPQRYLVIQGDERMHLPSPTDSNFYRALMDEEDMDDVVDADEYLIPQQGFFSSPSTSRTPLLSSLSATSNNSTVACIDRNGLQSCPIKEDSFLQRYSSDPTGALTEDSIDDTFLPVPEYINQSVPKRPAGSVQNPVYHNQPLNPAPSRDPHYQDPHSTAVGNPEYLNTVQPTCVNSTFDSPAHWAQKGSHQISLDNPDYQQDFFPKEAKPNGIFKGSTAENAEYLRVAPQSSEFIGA

EPHA2 = target: T12, EPHA2 (Homo sapiens, UniProt P29317)
T12 construct: purchased DiscoveRx KINOMEscan

EPHA8 = target: T13, EPHA8 (Homo sapiens, UniProt P29322)
T13 construct: purchased DiscoveRx KINOMEscan

FLT3(D835Y) = target: T14, FLT3(D835Y) (Homo sapiens, UniProt P36888, D835Y)
T14 construct: purchased DiscoveRx KINOMEscan

FLT3(K663Q) = target: T15, FLT3(K663Q) (Homo sapiens, UniProt P36888, K663Q)
T15 construct: purchased DiscoveRx KINOMEscan

FLT3(N841I) = target: T16, FLT3(N841I) (Homo sapiens, UniProt P36888, N841I)
T16 construct: purchased DiscoveRx KINOMEscan

HCK = target: T17, HCK (Homo sapiens, UniProt P08631)
T17 construct: purchased DiscoveRx KINOMEscan

ITK = target: T18, ITK (Homo sapiens, UniProt Q08881)
T18 construct: purchased DiscoveRx KINOMEscan
T18 sequence (Q08881 whole entry): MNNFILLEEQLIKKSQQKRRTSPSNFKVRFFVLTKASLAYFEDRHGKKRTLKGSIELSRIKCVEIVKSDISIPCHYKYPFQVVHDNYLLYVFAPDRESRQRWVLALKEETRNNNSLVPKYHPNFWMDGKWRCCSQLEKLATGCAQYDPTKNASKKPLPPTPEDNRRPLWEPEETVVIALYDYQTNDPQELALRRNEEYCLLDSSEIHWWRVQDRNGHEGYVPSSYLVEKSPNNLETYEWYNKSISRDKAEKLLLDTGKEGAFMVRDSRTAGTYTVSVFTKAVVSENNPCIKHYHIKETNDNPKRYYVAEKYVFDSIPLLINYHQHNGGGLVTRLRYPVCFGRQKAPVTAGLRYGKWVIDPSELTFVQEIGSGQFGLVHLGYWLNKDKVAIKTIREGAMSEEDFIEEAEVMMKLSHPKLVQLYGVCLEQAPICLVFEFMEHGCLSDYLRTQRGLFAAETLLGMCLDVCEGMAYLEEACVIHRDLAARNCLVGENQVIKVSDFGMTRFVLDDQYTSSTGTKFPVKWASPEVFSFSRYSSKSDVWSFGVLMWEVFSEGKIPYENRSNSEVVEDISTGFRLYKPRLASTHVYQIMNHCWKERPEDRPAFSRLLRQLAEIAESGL

MAP4K5 = target: T19, MAP4K5 (Homo sapiens, UniProt Q9Y4K4)
T19 construct: purchased DiscoveRx KINOMEscan

MEK2 = target: T20, MEK2 (Homo sapiens, UniProt P36507)
T20 construct: purchased DiscoveRx KINOMEscan

MYLK2 = target: T21, MYLK2 (Homo sapiens, UniProt Q9H1R3)
T21 construct: purchased DiscoveRx KINOMEscan
T21 sequence (Q9H1R3 whole entry): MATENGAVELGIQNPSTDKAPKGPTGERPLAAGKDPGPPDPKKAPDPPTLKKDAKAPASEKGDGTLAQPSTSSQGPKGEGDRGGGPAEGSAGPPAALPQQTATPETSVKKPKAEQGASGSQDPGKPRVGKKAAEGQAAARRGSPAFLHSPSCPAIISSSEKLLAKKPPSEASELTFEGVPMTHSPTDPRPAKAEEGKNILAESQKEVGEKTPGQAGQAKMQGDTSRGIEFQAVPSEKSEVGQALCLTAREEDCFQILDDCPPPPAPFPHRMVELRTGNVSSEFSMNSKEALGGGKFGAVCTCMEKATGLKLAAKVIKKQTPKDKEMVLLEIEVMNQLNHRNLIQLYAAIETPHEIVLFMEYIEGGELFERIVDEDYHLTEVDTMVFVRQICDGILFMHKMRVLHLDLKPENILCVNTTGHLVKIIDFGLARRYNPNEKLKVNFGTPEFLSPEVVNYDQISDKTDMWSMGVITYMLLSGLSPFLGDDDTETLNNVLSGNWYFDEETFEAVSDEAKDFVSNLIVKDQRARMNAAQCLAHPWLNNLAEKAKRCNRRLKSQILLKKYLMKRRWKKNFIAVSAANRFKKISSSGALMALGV

NEK11 = target: T22, NEK11 (Homo sapiens, UniProt Q8NG66)
T22 construct: purchased DiscoveRx KINOMEscan
T22 sequence (Q8NG66 whole entry): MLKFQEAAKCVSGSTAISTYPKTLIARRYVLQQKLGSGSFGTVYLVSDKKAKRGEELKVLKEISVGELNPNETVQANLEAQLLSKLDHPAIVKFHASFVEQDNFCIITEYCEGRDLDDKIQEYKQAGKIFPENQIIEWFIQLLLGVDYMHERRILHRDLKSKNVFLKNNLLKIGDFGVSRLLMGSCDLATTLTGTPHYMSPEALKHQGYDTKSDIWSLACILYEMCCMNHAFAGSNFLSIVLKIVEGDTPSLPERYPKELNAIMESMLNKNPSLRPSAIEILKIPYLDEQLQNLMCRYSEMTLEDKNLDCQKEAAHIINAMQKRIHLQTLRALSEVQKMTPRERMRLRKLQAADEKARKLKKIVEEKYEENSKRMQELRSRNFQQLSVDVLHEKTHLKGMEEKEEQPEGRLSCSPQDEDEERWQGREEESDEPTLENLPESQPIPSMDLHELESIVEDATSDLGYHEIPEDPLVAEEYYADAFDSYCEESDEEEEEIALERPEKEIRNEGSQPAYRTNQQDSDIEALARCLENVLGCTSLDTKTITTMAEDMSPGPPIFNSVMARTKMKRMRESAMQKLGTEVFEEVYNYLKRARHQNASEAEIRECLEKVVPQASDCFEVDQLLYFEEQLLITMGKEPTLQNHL

NEK2 = target: T23, NEK2 (Homo sapiens, UniProt P51955)
T23 construct: purchased DiscoveRx KINOMEscan

p38-alpha = target: T24, p38-alpha (Homo sapiens, UniProt Q16539)
T24 construct: purchased DiscoveRx KINOMEscan

PIK3CA(H1047L) = target: T25, PIK3CA(H1047L) (Homo sapiens, UniProt P42336, H1047L)
T25 construct: purchased DiscoveRx KINOMEscan

PRKG1 = target: T26, PRKG1 (Homo sapiens, UniProt Q13976)
T26 construct: purchased DiscoveRx KINOMEscan

RET(V804L) = target: T27, RET(V804L) (Homo sapiens, UniProt P07949, V804L)
T27 construct: purchased DiscoveRx KINOMEscan

S6K1 = target: T28, S6K1 (Homo sapiens, UniProt P23443)
T28 construct: purchased DiscoveRx KINOMEscan

SIK2 = target: T29, SIK2 (Homo sapiens, UniProt Q9H0K1)
T29 construct: purchased DiscoveRx KINOMEscan

SNARK = target: T30, SNARK (Homo sapiens, UniProt Q9H093)
T30 construct: purchased DiscoveRx KINOMEscan

STK33 = target: T31, STK33 (Homo sapiens, UniProt Q9BYT3)
T31 construct: purchased DiscoveRx KINOMEscan

ULK2 = target: T32, ULK2 (Homo sapiens, UniProt Q8IYT8)
T32 construct: purchased DiscoveRx KINOMEscan

WNK1 = target: T33, WNK1 (Homo sapiens, UniProt Q9H4A3)
T33 construct: purchased DiscoveRx KINOMEscan

With `CCN(C(=O)CO)[C@H]1CN(/C(=N\C#N)Nc2cccc(OC(F)F)c2)N=C1c1ccc(Cl)c(Cl)c1` [(S)-4] the remaining binding at 1 µM (BIKE) was 80%, the remaining binding at 1 µM (CAMK1G) was 98% and the remaining binding at 1 µM (CAMK4) was 82%. The remaining binding at 1 µM (CDK11) was 85%, the remaining binding at 1 µM (CDK5) was 82% and the remaining binding at 1 µM (CSF1R) was 100%. For the same molecule, the remaining binding at 1 µM (CSNK1A1) was 63%, the remaining binding at 1 µM (DAPK3) was 94% and the remaining binding at 1 µM (DMPK2) was 66%. It also gave a remaining binding at 1 µM [1] of 86%, a remaining binding at 1 µM (EGFR(L858R,T790M)) of 100% and a remaining binding at 1 µM (EPHA2) of 84%. It also gave a remaining binding at 1 µM (EPHA8) of 94%, a remaining binding at 1 µM (FLT3(D835Y)) of 78% and a remaining binding at 1 µM (FLT3(K663Q)) of 100%. For the same molecule, the remaining binding at 1 µM (FLT3(N841I)) was 95%, the remaining binding at 1 µM (HCK) was 68% and the remaining binding at 1 µM (ITK) was 94%. It also gave a remaining binding at 1 µM (MAP4K5) of 100%, a remaining binding at 1 µM (MEK2) of 90% and a remaining binding at 1 µM (MYLK2) of 100%. For the same molecule, the remaining binding at 1 µM (NEK11) was 77%, the remaining binding at 1 µM (NEK2) was 99% and the remaining binding at 1 µM (p38-alpha) was 86%. The remaining binding at 1 µM (PIK3CA(H1047L)) was 92%, the remaining binding at 1 µM (PRKG1) was 100% and the remaining binding at 1 µM (RET(V804L)) was 84%. For the same molecule, the remaining binding at 1 µM (S6K1) was 87%, the remaining binding at 1 µM (SIK2) was 99% and the remaining binding at 1 µM (SNARK) was 100%. For the same molecule, the remaining binding at 1 µM (STK33) was 83%, the remaining binding at 1 µM (ULK2) was 100% and the remaining binding at 1 µM (WNK1) was 100%.
